Measurements as given in publication PMC5654968 (NPJ Systems Biology and Applications, 2017).
Where two headings read alike, the source gives them in different places.

Type: in vivo, rat
Method: Distilled water and saline were administered as vehicle to rats in each control group. […] Plasma cytokine levels were measured by ELISA or multiplex immunoassay; common metabolites and lipid mediators were analyzed by GC-MS/MS and LC-MS/MS, respectively.
Pathway maps of lipid mediators were created by using CellDesigner 4.4 software (http://www.celldesigner.org). We evaluated the effects of the treatments on specific lipid mediators and categorized them according to COX, CYP and LOX pathways by Fisher’s exact test. The proinflammatory and anti-inflammatory indices were analyzed as described by Tam et al. with modification.[22]

[1] = PM/P (polyI:C+maoto vs polyI:C), 2h
[2] = PM/P (polyI:C+maoto vs polyI:C), 4h

| SMILES | log2FC of plasma level (M/C (maoto vs control), 2h) | log2FC of plasma level (M/C (maoto vs control), 4h) | log2FC of plasma level (P/C (polyI:C vs control), 2h) | log2FC of plasma level (P/C (polyI:C vs control), 4h) | log2FC of plasma level [1] | log2FC of plasma level [2] |
| --- | --- | --- | --- | --- | --- | --- |
| CCCCCC(O)C(O)C/C=C\C/C=C\C/C=C\CCCC(=O)O (stereo not drawn) [14,15-DHET] | 0.79 | 0.01 | 0.07 | 0.40 | 0.22 | -0.41 |
| CC/C=C\CC(O)C(O)C/C=C\C/C=C\C/C=C\CCCC(=O)O (stereo not drawn) [14,15-DiHETE] | 0.41 | -0.20 | 0.14 | 0.00 | -0.13 | -0.17 |
| CCCCCC1OC1C/C=C\C/C=C\C/C=C\CCCC(=O)O (stereo not drawn) [14,15-EET] | -0.23 | -0.59 | -0.40 | 0.01 | 0.02 | -0.47 |
| CC/C=C\C/C=C\CC(O)/C=C/C=C\C/C=C\C/C=C\CCC(=O)O (stereo not drawn) [14-HDoHE] | 0.82 | -0.39 | -0.32 | 0.40 | 0.58 | -0.58 |
| CCCCCC(O)/C=C/C=C\CCCCCCCCCC(=O)O (stereo not drawn) [15-HEDE] | 0.33 | -0.76 | -0.05 | 0.71 | 0.14 | -1.18 |
| CC/C=C\CC(O)/C=C/C=C\C/C=C\C/C=C\CCCC(=O)O (stereo not drawn) [15-HEPE] | 0.47 | -0.29 | 0.28 | 0.06 | -0.02 | -0.55 |
| CCCCC[C@H](O)/C=C/C=C\C/C=C\C/C=C\CCCC(=O)O [15-HETE] | -0.07 | -0.49 | -0.12 | 0.56 | -0.02 | -0.78 |
| CCCCCC(O)/C=C/C=C\C/C=C\CCCCCCC(=O)O (stereo not drawn) [15-HETrE] | 0.77 | 0.00 | 0.20 | 1.11 | 0.25 | -0.98 |
| CCCCCC(=O)/C=C/C=C\CCCCCCCCCC(=O)O [15-KEDE] | 0.13 | -0.62 | -0.26 | 0.83 | 0.21 | -1.15 |
| CCCCCC(=O)/C=C/[C@H]1[C@H](O)CC(=O)[C@@H]1C/C=C\CCCC(=O)O [15-keto-PGE2] | -0.28 | -0.61 | -0.15 | 0.64 | -0.07 | -1.08 |
| CC/C=C\C=C\C(O)C/C=C\C/C=C\C/C=C\C/C=C\CCC(=O)O (stereo not drawn) [16-HDoHE] | 0.10 | -0.60 | -0.12 | 0.38 | 0.16 | -0.76 |
| CCCCC(O)/C=C\C/C=C\C/C=C\C/C=C\CCCC(=O)O (stereo not drawn) [16-HETE] | 0.13 | -0.23 | 0.13 | 0.70 | -0.02 | -0.94 |
| CCC(O)C(O)C/C=C\C/C=C\C/C=C\C/C=C\CCCC(=O)O (stereo not drawn) [17,18-DiHETE] | 0.60 | -0.17 | 0.19 | 0.32 | -0.30 | -0.38 |
| CC/C=C\CC(O)/C=C/C=C\C/C=C\C/C=C\C/C=C\CCC(=O)O (stereo not drawn) [17-HDoHE] | 0.30 | -0.62 | -0.12 | 0.47 | 0.18 | -0.79 |
| CCCC(O)C/C=C\C/C=C\C/C=C\C/C=C\CCCC(=O)O (stereo not drawn) [17-HETE] | 0.20 | 0.07 | 0.59 | 0.13 | 0.42 | 0.16 |
| CCC(O)/C=C/C=C\C/C=C\C/C=C\C/C=C\CCCC(=O)O (stereo not drawn) [18-HEPE] | 0.08 | -0.59 | 0.02 | 0.07 | -0.16 | -0.77 |
| CCC(O)CC/C=C\C/C=C\C/C=C\C/C=C\CCCC(=O)O (stereo not drawn) [18-HETE] | 0.16 | -0.08 | 0.25 | -0.05 | -0.26 | -0.07 |
| CC(O)CCC/C=C\C/C=C\C/C=C\C/C=C\CCCC(=O)O (stereo not drawn) [19-HETE] | 1.44 | 0.46 | 0.66 | -0.33 | 0.46 | 0.72 |
| CCC(O)/C=C/C=C\C/C=C\C/C=C\C/C=C\C/C=C\CCC(=O)O (stereo not drawn) [20-HDoHE] | -0.10 | -0.54 | -0.13 | 0.44 | 0.06 | -0.71 |
| O=C(O)CCC/C=C\C/C=C\C/C=C\C/C=C\CCCCCO [20-HETE] | 0.51 | -0.20 | -0.23 | 0.52 | 0.70 | 0.06 |
| O=C(O)CCC/C=C\C/C=C\C/C=C\C/C=C\CCCCC(=O)O [20-carboxy-AA] | 0.40 | 0.17 | 0.03 | 0.32 | 0.28 | 0.00 |
| CCCCC/C=C\C/C=C\C/C=C\C/C=C\CCCC(=O)O [AA, arachidonic acid] | 0.19 | -0.02 | 0.12 | 0.14 | -0.10 | -0.04 |
| CC/C=C\C/C=C\C/C=C\C/C=C\C/C=C\C/C=C\CCC(=O)O [DHA, docosahexaenoic acid] | 0.46 | -0.10 | 0.22 | 0.09 | 0.05 | 0.03 |
| CC/C=C\C/C=C\C/C=C\C/C=C\C/C=C\CCCC(=O)O [EPA, eicosapentaenoic acid] | 0.56 | -0.10 | 0.28 | -0.05 | 0.04 | 0.03 |
| CCCCC/C=C\C\C=C/C=C/C=C/[C@@H](SC[C@H](N)C(=O)O)[C@@H](O)CCCC(=O)O [LTE4] | -0.95 | -1.00 | 1.04 | 0.58 | -0.91 | -0.51 |
